Activity calls are given as the source filed them. No cut-off for these calls is given here.
How the values were obtained:
Klebsiella pneumoniae [1] = experiment: Hormesis activity against Klebsiella pneumoniae assessed as increase in antibiotic MIC by measuring tetracycline MIC at 3 ug/ml incubated for 12 hrs by OD600 based analysis (reference value: 6 ug/ml); type: ADME, organism-based; conditions: in vivo, dose 3 µg/ml
Klebsiella pneumoniae [2] = experiment: Hormesis activity against Klebsiella pneumoniae deficient in KmrA gene expression assessed as increase in antibiotic MIC by measuring ciprofloxacin MIC at 3 ug/ml incubated for 12 hrs by OD600 based analysis (reference value: 0.0390625 ug/ml); type: ADME, organism-based; conditions: in vivo, dose 3 µg/ml
Klebsiella pneumoniae [3] = experiment: Hormesis activity against Klebsiella pneumoniae assessed as increase in antibiotic MIC by measuring meropenem MIC at 3 ug/ml incubated for 12 hrs by OD600 based analysis (reference value: 0.39625 ug/ml); type: ADME, organism-based; conditions: in vivo, dose 3 µg/ml
Klebsiella pneumoniae [4] = experiment: Hormesis activity against overnight compound-treated Klebsiella pneumoniae deficient in KmrA gene expression assessed as increase in antibiotic MIC by measuring atreonamMIC at 3 ug/ml incubated for 12 hrs by OD600 based analysis (reference value: 1.5625 ug/ml); type: ADME, organism-based; conditions: in vivo, dose 3 µg/ml
Acinetobacter baumannii [5] = experiment: Hormesis activity against Acinetobacter baumannii assessed as increase in antibiotic MIC by measuring azithromycin MIC at 3 ug/ml incubated for 12 hrs by OD600 based analysis (reference value: 200 ug/ml); type: ADME, organism-based; conditions: in vivo, dose 3 µg/ml
Klebsiella pneumoniae [6] = experiment: Hormesis activity against Klebsiella pneumoniae deficient in KmrA gene expression assessed as increase in antibiotic MIC by measuring cefotaxime MIC at 3 ug/ml incubated for 12 hrs by OD600 based analysis (reference value: 0.39625 ug/ml); type: ADME, organism-based; conditions: in vivo, dose 3 µg/ml
Klebsiella pneumoniae [7] = experiment: Hormesis activity against Klebsiella pneumoniae assessed as increase in antibiotic MIC by measuring cefotaxime MIC at 3 ug/ml incubated for 12 hrs by OD600 based analysis (reference value: 0.39625 ug/ml); type: ADME, organism-based; conditions: in vivo, dose 3 µg/ml
Enterobacter cloacae [8] = experiment: Hormesis activity against overnight compound-treated Enterobacter cloacae assessed as increase in antibiotic MIC by measuring streptomycin MIC at 3 ug/ml incubated for 12 hrs by OD600 based analysis (reference value: 12.5 ug/ml); type: ADME, organism-based; conditions: in vivo, dose 3 µg/ml
Klebsiella pneumoniae [9] = experiment: Hormesis activity against Klebsiella pneumonia assessed as promotion of bacterial growth by measuring increase in final OD600 at 3 ug/ml measured for 24 hrs in presence of 2 ug/ml tetracycline by OD600 based analysis; type: organism-based; conditions: in vivo, at 3 µg/mL
Klebsiella pneumoniae [10] = experiment: Hormesis activity against Klebsiella pneumoniae deficient in KmrA gene expression assessed as increase in antibiotic MIC by measuring atreonamMIC at 3 ug/ml incubated for 12 hrs by OD600 based analysis (reference value: 1.5625 ug/ml); type: ADME, organism-based; conditions: in vivo, dose 3 µg/ml
Klebsiella pneumoniae [11] = experiment: Hormesis activity against Klebsiella pneumoniae assessed as increase in antibiotic MIC by measuring atreonamMIC at 3 ug/ml incubated for 12 hrs by OD600 based analysis (reference value: 1.5625 ug/ml); type: ADME, organism-based; conditions: in vivo, dose 3 µg/ml
Enterobacter cloacae [12] = experiment: Hormesis activity against overnight compound-treated Enterobacter cloacae assessed as increase in antibiotic MIC by measuring tetracycline MIC at 3 ug/ml incubated for 12 hrs by OD600 based analysis (reference value: 8 ug/ml); type: ADME, organism-based; conditions: in vivo, dose 3 µg/ml
Enterobacter cloacae [13] = experiment: Hormesis activity against overnight compound-treated Enterobacter cloacae assessed as increase in antibiotic MIC by measuring rifampicin MIC at 3 ug/ml incubated for 12 hrs by OD600 based analysis (reference value: 25 ug/ml); type: ADME, organism-based; conditions: in vivo, dose 3 µg/ml
Klebsiella pneumoniae [14] = experiment: Hormesis activity against Klebsiella pneumoniae assessed as increase in antibiotic MIC by measuring chloramphenicol MIC at 3 ug/ml incubated for 12 hrs by OD600 based analysis (reference value: 6.25 ug/ml); type: ADME, organism-based; conditions: in vivo, dose 3 µg/ml
Klebsiella pneumoniae [15] = experiment: Hormesis activity against overnight compound-treated Klebsiella pneumoniae assessed as increase in antibiotic MIC by measuring meropenem MIC at 3 ug/ml incubated for 12 hrs by OD600 based analysis (reference value: 0.39625 ug/ml); type: ADME, organism-based; conditions: in vivo, dose 3 µg/ml
Klebsiella pneumoniae [16] = experiment: Hormesis activity against Klebsiella pneumonia assessed as inhibition of bacterial growth at 12 ug/ml measured after 24 hrs by OD600 based analysis; type: functional, organism-based; conditions: dose 12.0 µg/ml
Enterobacter cloacae [17] = experiment: Hormesis activity against Enterobacter cloacae assessed as increase in antibiotic MIC by measuring streptomycin MIC at 3 ug/ml incubated for 12 hrs by OD600 based analysis (reference value: 12.5 ug/ml); type: ADME, organism-based; conditions: in vivo, dose 3 µg/ml
Acinetobacter baumannii [18] = experiment: Hormesis activity against Acinetobacter baumannii assessed as increase in antibiotic MIC by measuring rifampicin MIC at 3 ug/ml incubated for 12 hrs by OD600 based analysis (reference value: 1.5625 ug/ml); type: ADME, organism-based; conditions: in vivo, dose 3 µg/ml
Acinetobacter baumannii [19] = experiment: Hormesis activity against Acinetobacter baumannii assessed as increase in antibiotic MIC by measuring hygromycinMIC at 3 ug/ml incubated for 12 hrs by OD600 based analysis (reference value: 125 ug/ml); type: ADME, organism-based; conditions: in vivo, dose 3 µg/ml
Acinetobacter baumannii [20] = experiment: Hormesis activity against Acinetobacter baumannii assessed as increase in antibiotic MIC by measuring streptomycin MIC at 3 ug/ml incubated for 12 hrs by OD600 based analysis (reference value: 400 ug/ml); type: ADME, organism-based; conditions: in vivo, dose 3 µg/ml
Enterobacter cloacae [21] = experiment: Hormesis activity against Enterobacter cloacae assessed as increase in antibiotic MIC by measuring cefotaxime MIC at 3 ug/ml incubated for 12 hrs by OD600 based analysis (reference value: 1.5625 ug/ml); type: ADME, organism-based; conditions: in vivo, dose 3 µg/ml
[22] = Upregulation of efflux pump regulator gene expression in Klebsiella pneumoniae at 3 ug/ml incubated for 12 hrs by transcriptome analysis; type: ADME; conditions: dose 3 µg/ml
Klebsiella pneumoniae [23] = experiment: Hormesis activity against overnight compound-treated Klebsiella pneumoniae assessed as increase in antibiotic MIC by measuring streptomycin MIC at 3 ug/ml incubated for 12 hrs by OD600 based analysis (reference value: 0.78125 ug/ml); type: ADME, organism-based; conditions: in vivo, dose 3 µg/ml
Enterobacter cloacae [24] = experiment: Hormesis activity against Enterobacter cloacae assessed as increase in antibiotic MIC by measuring meropenem MIC at 3 ug/ml incubated for 12 hrs by OD600 based analysis (reference value: 0.1953 ug/ml); type: ADME, organism-based; conditions: in vivo, dose 3 µg/ml
Enterobacter cloacae [25] = experiment: Hormesis activity against overnight compound-treated Enterobacter cloacae assessed as increase in antibiotic MIC by measuring azithromycin MIC at 3 ug/ml incubated for 12 hrs by OD600 based analysis (reference value: 6.25 ug/ml); type: ADME, organism-based; conditions: in vivo, dose 3 µg/ml
Acinetobacter baumannii [26] = experiment: Hormesis activity against Acinetobacter baumannii assessed as promotion of bacterial growth at 3 to 50 ug/ml measured for 24 hrs in presence of efflux pump inhibitor, CCCP and 80 to 120 ug/ml tetracycline by OD600 based analysis; type: ADME, organism-based; conditions: in vivo, dose 3-50 µg/ml
Klebsiella pneumoniae [27] = experiment: Hormesis activity against overnight compound-treated Klebsiella pneumoniae deficient in KmrA gene expression assessed as increase in antibiotic MIC by measuring chloramphenicol MIC at 3 ug/ml incubated for 12 hrs by OD600 based analysis (reference value: 6.25 ug/ml); type: ADME, organism-based; conditions: in vivo, dose 3 µg/ml
Klebsiella pneumoniae [28] = experiment: Hormesis activity against overnight compound-treated Klebsiella pneumoniae assessed as increase in antibiotic MIC by measuring azithromycin MIC at 3 ug/ml incubated for 12 hrs by OD600 based analysis (reference value: 1.5625 ug/ml); type: ADME, organism-based; conditions: in vivo, dose 3 µg/ml
Klebsiella pneumoniae [29] = experiment: Hormesis activity against overnight compound-treated Klebsiella pneumoniae assessed as increase in antibiotic MIC by measuring ampicillin MIC at 3 ug/ml incubated for 12 hrs by OD600 based analysis (reference value: 12.5 ug/ml); type: ADME, organism-based; conditions: in vivo, dose 3 µg/ml

Structure (SMILES): COc1ccc2cc3[n+](cc2c1OC)CCc1cc2c(cc1-3)OCO2 [BERBERINE]
- MIC (Klebsiella pneumoniae [1]): 6 µg/mL
- MIC (Klebsiella pneumoniae [2]): 0.03906 µg/mL
- MIC (Klebsiella pneumoniae [3]): 0.3962 µg/mL
- MIC (Klebsiella pneumoniae [4]): 1.5625 µg/mL
- MIC (Acinetobacter baumannii [5]): 200 µg/mL
- MIC (Klebsiella pneumoniae [6]): 0.3962 µg/mL
- MIC (Klebsiella pneumoniae [7]): 0.3962 µg/mL
- MIC (Enterobacter cloacae [8]): 25 µg/mL
- Activity (Klebsiella pneumoniae [9]): 23%
- MIC (Klebsiella pneumoniae [10]): 1.5625 µg/mL
- MIC (Klebsiella pneumoniae [11]): 1.5625 µg/mL
- MIC (Enterobacter cloacae [12]): 16 µg/mL
- MIC (Enterobacter cloacae [13]): 50 µg/mL
- MIC (Klebsiella pneumoniae [14]): 6.25 µg/mL
- MIC (Klebsiella pneumoniae [15]): 0.3962 µg/mL
- Activity (Klebsiella pneumoniae [16]): Active
- MIC (Enterobacter cloacae [17]): 12.5 µg/mL
- MIC (Acinetobacter baumannii [18]): 3.125 µg/mL
- MIC (Acinetobacter baumannii [19]): 250 µg/mL
- MIC (Acinetobacter baumannii [20]): 400 µg/mL
- MIC (Enterobacter cloacae [21]): 3.125 µg/mL
- Activity [22]: Toxic
- MIC (Klebsiella pneumoniae [23]): 3.125 µg/mL
- MIC (Enterobacter cloacae [24]): 0.1953 µg/mL
- MIC (Enterobacter cloacae [25]): 6.25 µg/mL
- Activity (Acinetobacter baumannii [26]): Non-Toxic
- MIC (Klebsiella pneumoniae [27]): 6.25 µg/mL
- MIC (Klebsiella pneumoniae [28]): 3.125 µg/mL
- MIC (Klebsiella pneumoniae [29]): 12.5 µg/mL

From ChEMBL document CHEMBL4831545, “Hormesis Effect of Berberine against Klebsiella pneumoniae Is Mediated by Up-Regulation of the Efflux Pump KmrA” (J Nat Prod, 2021)
